Test results as given in patent EP4385495A1, “NANOSYSTEMS FOR THE ENCAPSULATION OF THERAPEUTIC AGENTS” (National Technical University of Athens, priority 2022, dated 2024).

How the values were obtained:
[1] = test system: experimental animal model of osteoarthritis (OA); experiment: von Frey mechanical allodynia test in osteoarthritis rat model; format: in vivo, Wistar rats; conditions: for Paw Withdrawal Threshold (%): right paw/(right paw + left paw)*100
Protocol: Healthy adult male Wistar rats (150-200 g) were used for the study, with water and food ad libitum, at a constant temperature of 22°C and controlled lighting (12 h light/12 h dark cycle). […] As far as the dispersion procedure of the injectables is concerned, all the natural compounds were dissolved in saline solution, whereas the studied nanoparticles were mechanically grinded in a mortar and pestle set with saline solution and Tween 20 (2% w/v) and heated at 36 °C before each treatment. There were six treatments administered every 10 days. At the end of the experiment rats were euthanized and both knees were collected for histological analysis. Rats were anesthetized with chloral hydrate. The right knee joints of Group I were injected with normal saline solution and served as a control. Animals from the groups II, III, IV, V, VI, VII were injected with collagenase type II (Clostridium histolyticum). Collagenase (125 collagen digestion unit/mg) was dissolved in saline, and it was injected intra-articularly into the right knee joint twice on days 1 and 4 of the experiment ([…] and S. Fakurazi. Collagenase and sodium iodoacetate-induced experimental osteoarthritis model in Sprague dawley rats. Asian J. Sci. Res. 2: 1-13, 2009). The left knees of all animals were left untreated as a control. For the evaluation of the effectiveness and time of release of the encapsulated compounds, all animals were subjected to a series of behavioral testing in addition to the measurements of body weight and knees diameter change. The experimental protocol of the present study followed the combination of three different behavioral tests, which are von Frey mechanical allodynia test, grid walking and slope walking test. Behavioral tests are performed in three phases, at the beginning before the start of treatment, in the middle of treatment (approximately 35-40 days) and at the end (after the 70th day). Mechanical allodynia was tested by the von Frey method which detects pain threshold as the paw withdrawal response. For the testing, rats were placed into plastic chambers that allow access to the plantar surface of the hind paws. […] In Table 15 below, the nociceptive threshold is defined as: nociceptive threshold (%) = ([…])/((nociceptive; threshold on right paw + nociceptive threshold of left paw))*100 [formula] Table 13: von Frey-paw withdrawal threshold (g)

RAW264.7 cells = experiment: MTT cell viability assay; format: cell-based, mouse; conditions: for % cell viability: 24h
Source text: The MTT (3-[4,5-dimethylthiazol-2-yl]-2,5 diphenyl tetrazolium bromide) assay is based on the ability of viable cells with active metabolism to convert the yellow MTT to a purple formazan product, which determines mitochondrial activity. The MTT formazan product agglomerates as an insoluble residuum within the cells, which can be solubilized (in this protocol with DMSO) for homogeneous measurement. Thus, any increase or decrease in the number of viable cells can be detected by measuring the formazan concentration reflected in the optical density (OD) measurement at 540 nm with a reference absorption of 720 nm. This assay is broadly used to measure the in vitro cytotoxic effects of drugs on cell lines or primary cells. For the experimental procedure a standard solution of MTT 1mg/mL in PBS was prepared which after filtration ([…] filter (Millipore, Carrigtwohill, Ireland)) was stored in the dark (4-8 °C) until use. In brief, RAW 264.7 cells were seeded in a 96-well plate at a density of 30.000 cells/ in 100 µL of medium per well. […] This was followed by incubation for 24 h, 48 h and 72 h. At the end of the incubation 10 µL of MTT was added to each well followed by incubation for 4 hours, for the formation of the formazan crystals. The formazan crystals were then dissolved by adding DMSO and stirring lightly for 30 min, after which the absorbance was measured in a plate reader at 540 nm with a reference absorbance of 720 nm. […] Table 4: % cell viability after treatment of RAW264.7 cells with the samples

[2] = test system: experimental animal model of osteoarthritis (OA); experiment: Grid-walking test in osteoarthritis rat model; format: in vivo, Wistar rats
Protocol: Rats were anesthetized with chloral hydrate. The right knee joints of Group I were injected with normal saline solution and served as a control. Animals from the groups II, III, IV, V, VI, VII were injected with collagenase type II (Clostridium histolyticum). Collagenase (125 collagen digestion unit/mg) was dissolved in saline, and it was injected intra-articularly into the right knee joint twice on days 1 and 4 of the experiment (Al-Saffar, F., H. Ganabadi and S. Fakurazi. Collagenase and sodium iodoacetate-induced experimental osteoarthritis model in Sprague dawley rats. Asian J. Sci. Res. 2: 1-13, 2009). The left knees of all animals were left untreated as a control.
In this test the rats were allowed to explore freely for 4 minutes in a wire grid and when one of the limbs fell below the grid surface during free walking, the observer counted the number of foot-fault errors (footslips) (Starkey, M. L., Barritt, A. W., Yip, P. K., Davies, M., Hamers, F. P. T., McMahon, S. B., & Bradbury, E. J. (2005). Assessing behavioural function following a pyramidotomy lesion of the corticospinal tract in adult mice. Experimental Neurology, 195(2), 524-539. doi:10.1016/j.expneurol.2005.0).

Structure (SMILES): C[C@@H]1O[C@@H](O[C@H]2[C@H](Oc3cc(O)c4c(c3)O[C@H](c3ccc(O)cc3)CC4=O)O[C@H](CO)[C@@H](O)[C@@H]2O)[C@H](O)[C@H](O)[C@H]1O [S1 [NAR], Naringin]
- von Frey-paw withdrawal threshold ([1]; 11 days (before treatment)): 63 g
- von Frey-paw withdrawal threshold ([1]; 40 days (half of experimental protocol), 10 mg/kg (S1, ibuprofen i.p.; nanoparticles i.a.)): 81,12 g
- von Frey-paw withdrawal threshold ([1]; 70 days (end of experimental protocol), 10 mg/kg (S1, ibuprofen i.p.; nanoparticles i.a.)): 83,96 g
- von Frey-paw withdrawal threshold ([1]; left-control paw): 88,68 g
- paw withdrawal thresholds after commencement of treatment (in words) ([1]; rat, in vivo): presented an increase
- Paw Withdrawal Threshold (%) ([1]; 11 days (before treatment)): 41,53%
- Paw Withdrawal Threshold (%) ([1]; 40 days (half of experimental protocol)): 45,55%
- Paw Withdrawal Threshold (%) ([1]; 70 days (end of experimental protocol)): 45,95%
- % cell viability (RAW264.7 cells; 25 µM): 100%
- % cell viability (RAW264.7 cells; 50 µM): 100%
- cytotoxicity / cell viability (in words) (RAW264.7 cells; lower concentrations): full cell viability
- Foot fault in grid-walk test (4 min) ([2]; 11 days left paw): 3,4
- Foot fault in grid-walk test (4 min) ([2]; 11 days right paw): 5,6
- Foot fault in grid-walk test (4 min) ([2]; 40 days left paw): 2
- Foot fault in grid-walk test (4 min) ([2]; 40 days right paw): 3
- Foot fault in grid-walk test (4 min) ([2]; 70 days left paw): 2,8
- Foot fault in grid-walk test (4 min) ([2]; 70 days right paw): 2,4
